The text below walks through data of ChEMBL document CHEMBL5614465, “Discovery of the First Clinical Protein Degrader for the Treatment of Autoimmune Indications: Orally Bioavailable and Selective IRAK4 Degrader KT-474” (J Med Chem, 2024).

For this assay, the target named is Protein cereblon/Interleukin-1 receptor-associated kinase 4 (Homo sapiens, UniProt Q9NWZ3+Q96SW2). The assay can be described thus: PROTAC activity at CRBN/IRAK4 in human HEK293T cells assessed as induction of IRAK4 degradation measured after 24 hrs by immunoblotting analysis. The class given is cell-based.
Sequence of Protein cereblon/Interleukin-1 receptor-associated kinase 4 (Q9NWZ3 whole entry): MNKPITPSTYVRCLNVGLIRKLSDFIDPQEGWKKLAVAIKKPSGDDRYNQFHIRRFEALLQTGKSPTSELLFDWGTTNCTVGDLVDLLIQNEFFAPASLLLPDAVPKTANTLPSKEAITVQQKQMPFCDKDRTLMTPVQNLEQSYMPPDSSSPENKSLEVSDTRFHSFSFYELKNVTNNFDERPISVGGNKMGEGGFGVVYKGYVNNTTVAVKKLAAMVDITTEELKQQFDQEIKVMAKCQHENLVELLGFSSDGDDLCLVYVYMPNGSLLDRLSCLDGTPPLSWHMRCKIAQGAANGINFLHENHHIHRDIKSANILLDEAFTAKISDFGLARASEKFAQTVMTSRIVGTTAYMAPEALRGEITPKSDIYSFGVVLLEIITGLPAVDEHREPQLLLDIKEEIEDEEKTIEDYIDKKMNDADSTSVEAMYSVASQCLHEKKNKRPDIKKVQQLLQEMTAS
Sequence of Protein cereblon/Interleukin-1 receptor-associated kinase 4 (Q96SW2 whole entry): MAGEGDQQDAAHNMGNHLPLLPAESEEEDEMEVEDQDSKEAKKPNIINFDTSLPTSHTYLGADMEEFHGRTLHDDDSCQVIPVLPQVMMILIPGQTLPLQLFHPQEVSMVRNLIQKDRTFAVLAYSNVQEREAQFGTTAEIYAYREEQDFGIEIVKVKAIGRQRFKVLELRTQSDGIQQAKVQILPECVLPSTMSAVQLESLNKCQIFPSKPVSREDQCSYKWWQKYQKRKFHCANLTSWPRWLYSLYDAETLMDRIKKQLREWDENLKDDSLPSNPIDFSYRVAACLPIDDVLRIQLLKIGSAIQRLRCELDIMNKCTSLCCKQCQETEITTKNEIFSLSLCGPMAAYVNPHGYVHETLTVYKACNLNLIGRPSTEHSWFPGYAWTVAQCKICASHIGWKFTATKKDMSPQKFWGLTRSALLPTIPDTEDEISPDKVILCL

As for `CC(C)Nc1cc(-n2ccc3cc(C#N)cnc32)ncc1C(=O)N[C@H]1CC[C@H](C(=O)NCCOCCNC(=O)COc2cccc3c2C(=O)N(C2CCC(=O)NC2=O)C3=O)CC1` (stereo partly specified), the DC50 was 405 nM.
